From US11046694B2, “Compounds and methods for treating bacterial infections” (Entasis Therapeutics, Inc., priority 2018, dated 2021)
In brackets after ≈: the same amount, converted by molar mass. Counter-ions that a name gives are not always drawn.

Experiments:
P. aeruginosa PBP3 = P. aeruginosa PBP3 (Pseudomonas aeruginosa, UniProt G3XD46); type: biochemical; conditions: P. aeruginosa PBP3 60 nM, BOCILLIN FL 30 nM, pH 7.0
P. aeruginosa PBP1a = P. aeruginosa PBP1a (Pseudomonas aeruginosa, UniProt Q07806); type: biochemical; conditions: P. aeruginosa PBP1a 60 nM, BOCILLIN FL 30 nM, pH 7.0
Sequence of P. aeruginosa PBP1a (Q07806 whole entry): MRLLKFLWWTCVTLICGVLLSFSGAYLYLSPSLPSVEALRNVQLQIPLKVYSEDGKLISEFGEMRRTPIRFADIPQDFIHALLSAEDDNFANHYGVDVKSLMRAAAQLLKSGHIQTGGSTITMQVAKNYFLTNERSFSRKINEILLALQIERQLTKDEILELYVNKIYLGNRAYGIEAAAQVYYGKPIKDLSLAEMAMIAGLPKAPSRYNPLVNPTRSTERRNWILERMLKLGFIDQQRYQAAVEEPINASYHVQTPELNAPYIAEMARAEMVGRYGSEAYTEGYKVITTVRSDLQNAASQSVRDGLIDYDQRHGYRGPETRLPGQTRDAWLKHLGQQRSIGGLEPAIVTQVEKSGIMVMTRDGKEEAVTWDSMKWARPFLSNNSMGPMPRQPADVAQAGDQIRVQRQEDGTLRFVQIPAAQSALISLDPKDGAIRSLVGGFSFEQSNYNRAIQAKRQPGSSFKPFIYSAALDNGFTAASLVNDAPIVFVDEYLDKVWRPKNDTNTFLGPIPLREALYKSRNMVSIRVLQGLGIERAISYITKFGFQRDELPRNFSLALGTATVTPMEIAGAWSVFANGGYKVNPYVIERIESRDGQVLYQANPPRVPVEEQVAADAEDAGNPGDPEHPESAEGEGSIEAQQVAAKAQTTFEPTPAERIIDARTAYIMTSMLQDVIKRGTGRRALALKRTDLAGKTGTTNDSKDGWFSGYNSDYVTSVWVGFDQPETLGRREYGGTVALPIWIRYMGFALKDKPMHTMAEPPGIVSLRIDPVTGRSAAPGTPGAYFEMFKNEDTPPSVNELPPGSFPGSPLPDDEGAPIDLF

P. aeruginosa PBP2 = target: T1, P. aeruginosa PBP2 (Pseudomonas aeruginosa, UniProt Q9X6V3); type: biochemical; conditions: P. aeruginosa PBP2 300 nM, BOCILLIN FL 30 nM, pH 6.2
T1 sequence (Q9X6V3 1-646): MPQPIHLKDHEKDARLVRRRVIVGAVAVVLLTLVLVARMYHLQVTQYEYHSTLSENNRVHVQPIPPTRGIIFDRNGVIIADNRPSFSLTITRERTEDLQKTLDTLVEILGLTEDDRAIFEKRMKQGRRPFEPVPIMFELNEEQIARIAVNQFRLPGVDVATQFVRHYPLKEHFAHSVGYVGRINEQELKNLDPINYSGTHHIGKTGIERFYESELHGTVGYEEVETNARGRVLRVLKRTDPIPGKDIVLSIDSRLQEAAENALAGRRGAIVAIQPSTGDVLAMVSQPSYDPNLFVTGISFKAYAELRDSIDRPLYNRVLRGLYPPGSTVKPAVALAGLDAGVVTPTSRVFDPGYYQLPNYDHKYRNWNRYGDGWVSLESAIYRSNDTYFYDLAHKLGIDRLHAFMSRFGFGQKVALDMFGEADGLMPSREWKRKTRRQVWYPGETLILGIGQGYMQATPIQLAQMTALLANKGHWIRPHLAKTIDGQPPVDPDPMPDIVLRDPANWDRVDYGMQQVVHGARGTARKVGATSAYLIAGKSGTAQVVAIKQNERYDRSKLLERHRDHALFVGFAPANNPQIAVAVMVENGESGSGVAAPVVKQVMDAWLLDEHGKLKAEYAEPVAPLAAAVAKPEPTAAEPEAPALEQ

[1] = tested on: K. pneumoniae (ATCC700603); assay: MIC against K. pneumoniae; conditions: Klebsiella pneumoniae, ATCC700603, read-out: K. pneumoniae MIC (ATCC700603)
A. baumannii (ARC3495) = assay: MIC against A. baumannii; conditions: Acinetobacter baumannii, read-out: A. baumannii MIC (ARC3495) (mg/L)
P. aeruginosa WT (PAO1) = assay: MIC, CLSI broth microdilution, P. aeruginosa; type: cell-based; conditions: Pseudomonas aeruginosa, PAO1; CLSI broth microdilution; read-out: P. aeruginosa WT (PAO1) MIC
E. coli (ATCC25922) = assay: MIC against E. coli; conditions: Escherichia coli, ATCC25922, read-out: E. coli MIC (ATCC25922) (mg/L)

Sequence of P. aeruginosa PBP3 (G3XD46 whole entry): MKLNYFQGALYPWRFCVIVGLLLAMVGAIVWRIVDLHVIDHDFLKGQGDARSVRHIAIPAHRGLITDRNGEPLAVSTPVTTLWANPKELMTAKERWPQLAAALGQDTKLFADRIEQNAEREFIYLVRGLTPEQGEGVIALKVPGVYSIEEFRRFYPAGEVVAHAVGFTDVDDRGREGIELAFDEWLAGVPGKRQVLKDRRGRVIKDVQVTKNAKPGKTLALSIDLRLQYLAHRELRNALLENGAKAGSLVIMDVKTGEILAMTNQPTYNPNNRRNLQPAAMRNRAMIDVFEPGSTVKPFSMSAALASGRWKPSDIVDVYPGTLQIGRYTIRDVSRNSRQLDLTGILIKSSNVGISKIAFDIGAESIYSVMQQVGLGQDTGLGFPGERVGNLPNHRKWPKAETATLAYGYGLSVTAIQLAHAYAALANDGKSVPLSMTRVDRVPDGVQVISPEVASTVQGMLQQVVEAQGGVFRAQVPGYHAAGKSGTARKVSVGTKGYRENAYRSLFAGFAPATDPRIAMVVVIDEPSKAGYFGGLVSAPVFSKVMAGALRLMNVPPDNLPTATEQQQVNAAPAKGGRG

SMILES | PBP3 acylation rate, k(on) (M^−1 · s^−1) (P. aeruginosa PBP3) | PBP1a acylation rate, k(on) (M^−1 · s^−1) (P. aeruginosa PBP1a) | PBP2 acylation rate, k(on) (M^−1 · s^−1) (P. aeruginosa PBP2) | MIC [1] [µg/mL] | MIC (A. baumannii (ARC3495)) [mg/L] | MIC (P. aeruginosa WT (PAO1)) [µg/mL] | MIC (E. coli (ATCC25922)) [mg/L]
Cn1ncc2c1[C@@H](/C(=N/O)NCc1nc(N)cs1)N1C[C@@H]2N(OS(=O)(=O)O)C1=O [Example 51, (4R,8S)-8-((Z)—N-((4-aminothiazol-2-yl)methyl)-N′-hydroxycarbamimidoyl)-1-methyl-6-oxo-4,8-dihydro-1H-4,7-methanopyrazolo[3,4-e][1,3]diazepin-5(6H)-yl hydrogen sulfate] | ** (** represents a k(on) of 100 to 10,000 M^−1 · s^−1) | ** (** represents a k(on) of 100 to 10,000 M^−1 · s^−1) | * (* represents a k(on) < 100 M^−1 · s^−1) | > 16 | > 16 | > 16 | < 8
CN/C(=N\OC(=O)NCCC(=O)O)[C@@H]1c2c(cnn2C)[C@@H]2CN1C(=O)N2OS(=O)(=O)O (racemic) [Example 27] | *** (*** represents a k(on) > 10,000 M^−1 · s^−1) | ** (** represents a k(on) of 100 to 10,000 M^−1 · s^−1) |  | > 16 | > 16 | 8 to 16 (≈ 17.3 to 34.7 µM) | < 8
CN/C(=N\OCC(=O)O)[C@@H]1c2c(cnn2C)[C@@H]2CN1C(=O)N2OS(=O)(=O)O [Example 62, 2-((((Z)-((4R,8S)-1-methyl-6-oxo-5-(sulfooxy)-4,5,6,8-tetrahydro-1H-4,7-methanopyrazolo[3,4-e][1,3]diazepin-8-yl)(methylamino)methylene)amino)oxy)acetic acid] | *** (*** represents a k(on) > 10,000 M^−1 · s^−1) | ** (** represents a k(on) of 100 to 10,000 M^−1 · s^−1) |  | 8 to 16 (≈ 19.8 to 39.6 µM) | > 16 | < 8 | 8 to 16 (≈ 19.8 to 39.6 µM)
CN/C(=N\OC(=O)NCC1CCNCC1)[C@@H]1c2c(cnn2C)[C@@H]2CN1C(=O)N2OS(=O)(=O)O (racemic) [Example 28] | *** (*** represents a k(on) > 10,000 M^−1 · s^−1) | ** (** represents a k(on) of 100 to 10,000 M^−1 · s^−1) |  | > 16 | 8 to 16 (≈ 16.4 to 32.9 µM) | < 8 | < 8
CN/C(=N\OCC(=O)NCCN)[C@@H]1c2c(cnn2C)[C@@H]2CN1C(=O)N2OS(=O)(=O)O (racemic) [Example 58, (4R,8S)-8-((Z)—N′-(2-((2-aminoethyl)amino)-2-oxoethoxy)-N-methylcarbamimidoyl)-1-methyl-6-oxo-4,8-dihydro-1H-4,7-methanopyrazolo[3,4-e][1,3]diazepin-5(6H)-yl hydrogen sulfate] | *** (*** represents a k(on) > 10,000 M^−1 · s^−1) | * (* represents a k(on) < 100 M^−1 · s^−1) |  | 8 to 16 | 8 to 16 | < 8 | 8 to 16
CN/C(=N\OC(=O)NCC(=O)O)[C@@H]1c2c(cnn2C)[C@@H]2CN1C(=O)N2OS(=O)(=O)O (racemic) [Example 22] | *** (*** represents a k(on) > 10,000 M^−1 · s^−1) | ** (** represents a k(on) of 100 to 10,000 M^−1 · s^−1) |  | 8 to 16 (≈ 17.9 to 35.8 µM) | > 16 | 8 to 16 (≈ 17.9 to 35.8 µM) | < 8
CN/C(=N\OC(=O)NCCNC(N)=O)[C@@H]1c2c(cnn2C)[C@@H]2CN1C(=O)N2OS(=O)(=O)O [Example 42, (4R,8S)-1-methyl-8-((Z)—N-methyl-N′-(((2-ureidoethyl)carbamoyl)oxy)carbamimidoyl)-6-oxo-4,8-dihydro-1H-4,7-methanopyrazolo[3,4-e][1,3]diazepin-5(6H)-yl hydrogen sulfate] | *** (*** represents a k(on) > 10,000 M^−1 · s^−1) | ** (** represents a k(on) of 100 to 10,000 M^−1 · s^−1) |  | > 16 | 8 to 16 | 8 to 16 | 8 to 16
CN/C(=N\OC(=O)NC1CCNCC1)[C@@H]1c2c(cnn2C)[C@@H]2CN1C(=O)N2OS(=O)(=O)O (racemic) [Example 29] | *** (*** represents a k(on) > 10,000 M^−1 · s^−1) | ** (** represents a k(on) of 100 to 10,000 M^−1 · s^−1) |  | > 16 | 8 to 16 (≈ 16.9 to 33.9 µM) | < 8 | 8 to 16 (≈ 16.9 to 33.9 µM)
CN/C(=N\OCC(=O)NOS(=O)(=O)O)[C@@H]1c2c(cnn2C)[C@@H]2CN1C(=O)N2OS(=O)(=O)O [Example 73, pyridium ((2-((((Z)-((4R,8S)-1-methyl-6-oxo-5-(sulfooxy)-4,5,6,8-tetrahydro-1H-4,7-methanopyrazolo[3,4-e][1,3]diazepin-8-yl)(methylamino)methylene)amino)oxy)acetamido)oxy)sulfonic acid] | *** (*** represents a k(on) > 10,000 M^−1 · s^−1) | ** (** represents a k(on) of 100 to 10,000 M^−1 · s^−1) |  | 8 to 16 (≈ 16 to 32 µM) | > 16 | 8 to 16 (≈ 16 to 32 µM) | 8 to 16 (≈ 16 to 32 µM)
CN/C(=N\OC(C)(C)C(=O)O)[C@@H]1c2c(cnn2C)[C@@H]2CN1C(=O)N2OS(=O)(=O)O [Example 63] | *** (*** represents a k(on) > 10,000 M^−1 · s^−1) | ** (** represents a k(on) of 100 to 10,000 M^−1 · s^−1) |  | > 16 | > 16 | 8 to 16 (≈ 18.5 to 37 µM) | < 8
CN/C(=N\OC(=O)NCc1cn(C)[n+](C)c1)[C@@H]1c2c(cnn2C)[C@@H]2CN1C(=O)N2OS(=O)(=O)O [Example 54, 1,2-dimethyl-4-((Z)-3-((4R,8S)-1-methyl-6-oxo-5-(sulfooxy)-4,5,6,8-tetrahydro-1H-4,7-methanopyrazolo[3,4-e][1,3]diazepin-8-yl)-6-oxo-5-oxa-2,4,7-triazaoct-3-en-8-yl)-1H-pyrazol-2-ium] | *** (*** represents a k(on) > 10,000 M^−1 · s^−1) | * (* represents a k(on) < 100 M^−1 · s^−1) |  | > 16 | > 16 | 8 to 16 | < 8
CN/C(=N\OC(=O)NCc1cnn(C)c1)[C@@H]1c2c(cnn2C)[C@@H]2CN1C(=O)N2OS(=O)(=O)O (racemic) [Example 15, (4R,8S)-1-methyl-8-((Z)—N-methyl-N′-((((1-methyl-1H-pyrazol-4-yl)methyl)carbamoyl)oxy)carbamimidoyl)-6-oxo-4,8-dihydro-1H-4,7-methanopyrazolo[3,4-e][1,3]diazepin-5(6H)-yl hydrogen sulfate] | *** (*** represents a k(on) > 10,000 M^−1 · s^−1) | ** (** represents a k(on) of 100 to 10,000 M^−1 · s^−1) |  | > 16 | > 16 | > 16 | < 8
